# Paper PMC6039096 (Science translational medicine, 2017)
# Experiments:
# EZH1 = molecular target: T1, EZH1 (Homo sapiens, UniProt Q92800); test: biochemical inhibition assay with recombinant EZH1
# T1 sequence (Q92800 1-747): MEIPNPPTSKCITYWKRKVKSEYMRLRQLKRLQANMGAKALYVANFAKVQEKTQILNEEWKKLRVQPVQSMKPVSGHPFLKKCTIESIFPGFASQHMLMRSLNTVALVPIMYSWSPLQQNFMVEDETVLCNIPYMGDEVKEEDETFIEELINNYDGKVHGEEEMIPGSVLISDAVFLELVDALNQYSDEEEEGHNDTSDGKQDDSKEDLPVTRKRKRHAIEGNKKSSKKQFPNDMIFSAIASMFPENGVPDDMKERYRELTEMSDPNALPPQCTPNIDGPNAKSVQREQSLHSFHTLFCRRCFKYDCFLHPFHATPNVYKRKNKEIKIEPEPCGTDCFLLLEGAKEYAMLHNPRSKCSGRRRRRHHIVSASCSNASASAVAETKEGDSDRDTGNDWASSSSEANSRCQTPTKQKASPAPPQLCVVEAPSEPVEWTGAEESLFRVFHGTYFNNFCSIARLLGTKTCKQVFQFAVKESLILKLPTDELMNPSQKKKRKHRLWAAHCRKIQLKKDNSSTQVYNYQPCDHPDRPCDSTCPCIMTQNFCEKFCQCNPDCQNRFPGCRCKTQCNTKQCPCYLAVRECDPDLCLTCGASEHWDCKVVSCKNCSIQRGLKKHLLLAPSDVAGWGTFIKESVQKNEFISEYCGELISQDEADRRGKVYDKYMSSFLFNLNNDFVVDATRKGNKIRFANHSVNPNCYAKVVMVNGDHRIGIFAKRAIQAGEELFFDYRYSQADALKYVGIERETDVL
# EZH2 = EZH2 (Homo sapiens, UniProt Q15910); test: biochemical inhibition assay with recombinant EZH2
# Sequence of EZH2 (Q15910 whole entry): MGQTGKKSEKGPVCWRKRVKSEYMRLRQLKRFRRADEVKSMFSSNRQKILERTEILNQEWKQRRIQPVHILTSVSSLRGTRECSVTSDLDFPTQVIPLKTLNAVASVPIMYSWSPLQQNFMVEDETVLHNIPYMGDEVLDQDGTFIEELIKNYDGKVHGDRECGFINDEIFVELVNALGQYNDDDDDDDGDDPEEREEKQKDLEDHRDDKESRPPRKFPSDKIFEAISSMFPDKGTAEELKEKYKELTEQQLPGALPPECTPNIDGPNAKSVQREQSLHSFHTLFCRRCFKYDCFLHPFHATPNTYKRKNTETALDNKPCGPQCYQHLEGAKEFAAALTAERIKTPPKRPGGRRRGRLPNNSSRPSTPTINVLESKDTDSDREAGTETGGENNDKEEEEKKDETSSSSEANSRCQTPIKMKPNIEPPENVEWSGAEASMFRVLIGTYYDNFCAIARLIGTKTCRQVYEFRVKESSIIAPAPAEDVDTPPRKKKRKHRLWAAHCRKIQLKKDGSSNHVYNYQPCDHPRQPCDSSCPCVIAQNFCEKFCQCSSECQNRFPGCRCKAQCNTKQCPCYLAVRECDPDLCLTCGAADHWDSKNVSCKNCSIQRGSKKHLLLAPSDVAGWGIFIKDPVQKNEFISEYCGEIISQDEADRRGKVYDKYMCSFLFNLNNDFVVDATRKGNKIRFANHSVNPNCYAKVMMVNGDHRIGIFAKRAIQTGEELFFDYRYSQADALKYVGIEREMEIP
smiles,measurement,setting,value
CCCc1cc(C)[nH]c(=O)c1CNC(=O)c1cc(-c2ccc(N3CCN(C)CC3)nc2)nc2c1cnn2C(C)C [JQ-EZ-05],Ki,EZH1,26.5 nM
same,Ki,EZH2,2.2 nM
